The values that follow come from ChEMBL document CHEMBL6127124, “Structure-Activity Relationships and Discovery of (S)-5-(tert-Butyl)-11-(difluoromethoxy)-9-methoxy-2-oxo-1,2,5,6-tetrahydropyrido[2',1':2,3]imidazo[4,5-h]quinoline-3-carboxylic Acid (AB-161), a Novel Orally Available and Liver-Centric HBV RNA Destabilizer” (J Med Chem, 2024).

Usually Kp stands for the ratio of the level in a tissue or fluid to that in plasma or blood. In general, pIC50 refers to −log10 of the IC50, conventionally taken in molar units. Low readings indicate a large IC50, high ones a small IC50. Broadly, the AUC(0-t) is the area under the concentration-time curve up to a stated or last time point.

The nature of data set [1]: Drug concentration in Beagle dog liver at 10 mg/kg, po measured for 12 hrs by LC-MS/MS analysis. Type of data set: ADME, organism-based, Canis lupus familiaris. The settings on record: read-out: Ct.
A short description of data set [2]: Metabolic stability in Beagle dog liver microsomes assessed as clearance at 0.3 uM preincubated for 5 mins followed by NADPH addition measured upto 60 mins by LC-MS/MS analysis. Type of data set: ADME, Canis lupus familiaris, Microsome. Conditions: read-out: CLH.
The subject of data set [3] is Hepatitis B virus. Briefly: Antiviral activity against HBV genotype D in immuno-competent C57BL/6 mouse model of chronic HBV assessed as log10 reduction in HBsAg production at 10 mg/kg, po qd for 7 days measured 24 hrs post-last dose by EIA (reference value: 0.98). Type of data set: functional. Conditions: time 8 day.
Data set [4] is described as follows: Metabolic stability in Sprague-Dawley rat liver microsomes assessed as clearance at 0.3 uM preincubated for 5 mins followed by NADPH addition measured upto 60 mins by LC-MS/MS analysis. Type of data set: ADME, Microsome. Conditions: time < 65 min, read-out: CLH. For orientation: Liver microsomes are a subcellular fraction often used to study metabolism.
Data set [5] can be described thus: Drug concentration in Sprague-Dawley rat kidney at 5 mg/kg, po measured for 24 hrs by LC-MS/MS analysis. Conditions: read-out: Ct. Type of data set: ADME, organism-based.
A short description of data set [6]: Ratio of drug concentration in lung to plasma of Sprague-Dawley rat at 5 mg/kg, po measured for 24 hrs by LC-MS/MS analysis. The class given is ADME, organism-based.
The nature of data set [7]: Ratio of total drug concentration in liver to plasma in CD-1 mouse at 0.2 mg/kg, po measured for 24 hrs by LC-MS/MS analysis. The class given is ADME, organism-based. Conditions: CD-1, mouse, liver and plasma.
A short description of data set [8]: Drug concentration in CD-1 mouse heart at 10 mg/kg, po measured for 24 hrs by LC-MS/MS analysis. Conditions: read-out: Ct. The class given is ADME, organism-based.
For data set [9], the target named is Cytochrome P450 2C19 (Homo sapiens, UniProt P33261). Briefly: Inhibition of CYP2C19 in human liver microsomes using S-mephenytoin as substrate preincubated for 30 min followed by NADPH addition measured after 12 mins by LC-MS/MS analysis. Type of data set: ADME, Microsome.
Chain of Cytochrome P450 2C19 (P33261 whole entry): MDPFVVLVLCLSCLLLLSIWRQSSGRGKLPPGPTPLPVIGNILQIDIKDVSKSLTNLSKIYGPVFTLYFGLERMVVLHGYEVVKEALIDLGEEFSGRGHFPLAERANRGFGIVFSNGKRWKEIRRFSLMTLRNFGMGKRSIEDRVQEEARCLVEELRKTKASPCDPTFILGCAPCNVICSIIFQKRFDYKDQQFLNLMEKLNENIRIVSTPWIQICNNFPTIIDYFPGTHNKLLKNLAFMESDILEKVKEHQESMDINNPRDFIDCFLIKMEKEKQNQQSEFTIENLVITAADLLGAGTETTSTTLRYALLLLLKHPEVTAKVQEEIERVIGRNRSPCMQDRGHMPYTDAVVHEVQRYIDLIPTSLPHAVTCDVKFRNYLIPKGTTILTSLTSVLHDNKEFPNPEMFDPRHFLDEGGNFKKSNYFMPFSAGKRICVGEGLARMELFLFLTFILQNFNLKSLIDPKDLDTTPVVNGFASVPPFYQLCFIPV
Data set [10] can be described thus: AUC (0 to 24 hrs) in CD-1 mouse at 0.2 mg/kg, po measured for 24 hrs by LC-MS/MS analysis. Type of data set: ADME, organism-based. Conditions: in vivo.
Data set [11] in a line: Drug concentration in Sprague-Dawley rat lung at 5 mg/kg, po measured for 24 hrs by LC-MS/MS analysis. The class given is ADME, organism-based.
Data set [12] in a line: Ratio of drug concentration in kidney to plasma of Sprague-Dawley rat at 5 mg/kg, po measured for 24 hrs by LC-MS/MS analysis. The class given is ADME, organism-based. The settings on record: kidney and plasma.
Data set [13] can be described thus: Drug concentration in Sprague-Dawley rat heart at 5 mg/kg, po measured for 24 hrs by LC-MS/MS analysis. Type of data set: ADME, organism-based.
For data set [14], the target named is Cytochrome P450 2C9 (Homo sapiens, UniProt P11712). Briefly: Inhibition of CYP2C9 in human liver microsomes using diclofenac as substrate preincubated for 30 min followed by NADPH addition measured after 12 mins by LC-MS/MS analysis. Type of data set: ADME, Microsome.
Chain of Cytochrome P450 2C9 (P11712 whole entry): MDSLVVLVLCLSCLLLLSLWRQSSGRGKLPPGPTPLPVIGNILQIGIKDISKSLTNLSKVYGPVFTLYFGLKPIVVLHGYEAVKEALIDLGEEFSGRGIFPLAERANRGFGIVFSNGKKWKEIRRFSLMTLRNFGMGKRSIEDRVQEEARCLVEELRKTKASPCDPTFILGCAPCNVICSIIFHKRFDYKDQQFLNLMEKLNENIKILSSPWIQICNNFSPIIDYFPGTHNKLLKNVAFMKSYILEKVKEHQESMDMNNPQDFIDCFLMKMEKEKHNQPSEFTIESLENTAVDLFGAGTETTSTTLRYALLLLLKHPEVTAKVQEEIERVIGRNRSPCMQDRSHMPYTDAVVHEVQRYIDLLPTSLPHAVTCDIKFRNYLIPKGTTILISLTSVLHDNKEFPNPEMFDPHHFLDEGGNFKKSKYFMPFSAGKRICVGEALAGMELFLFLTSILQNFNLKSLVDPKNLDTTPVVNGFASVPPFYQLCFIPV
Data set [15] can be described thus: Drug concentration in Sprague-Dawley rat plasma at 5 mg/kg, po measured for 24 hrs by LC-MS/MS analysis. The class given is ADME, organism-based. Conditions: read-out: Ct.
Data set [16] has as its target T1, Cytochrome P450 1A2 (Homo sapiens, UniProt P05177).
T1 sequence (P05177 whole entry): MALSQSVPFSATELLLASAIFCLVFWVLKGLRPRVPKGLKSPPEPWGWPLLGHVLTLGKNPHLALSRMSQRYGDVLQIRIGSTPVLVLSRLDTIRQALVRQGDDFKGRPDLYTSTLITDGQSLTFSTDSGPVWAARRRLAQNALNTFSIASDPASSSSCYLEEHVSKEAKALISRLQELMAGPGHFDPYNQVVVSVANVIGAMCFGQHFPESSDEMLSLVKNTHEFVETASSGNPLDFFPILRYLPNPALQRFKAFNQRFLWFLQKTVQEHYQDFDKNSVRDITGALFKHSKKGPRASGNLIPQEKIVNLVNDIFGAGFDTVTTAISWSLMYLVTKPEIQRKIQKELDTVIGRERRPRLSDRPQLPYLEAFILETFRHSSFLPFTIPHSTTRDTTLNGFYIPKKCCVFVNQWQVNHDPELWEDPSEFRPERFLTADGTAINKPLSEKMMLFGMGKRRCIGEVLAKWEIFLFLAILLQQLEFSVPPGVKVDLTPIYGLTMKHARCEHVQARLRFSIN
Briefly: Inhibition of CYP1A2 in human liver microsomes using phenacetin as substrate preincubated for 30 min followed by NADPH addition measured after 12 mins by LC-MS/MS analysis. The class given is ADME, Microsome.

Data set [17] is described as follows: Ratio of total drug concentration in liver to plasma in CD-1 mouse at 0.2 mg/kg, po measured for 12 hrs by LC-MS/MS analysis. Type of data set: ADME, organism-based. The settings on record: liver and plasma.
Data set [18] in a line: Ratio of drug concentration in lung to plasma of CD-1 mouse at 10 mg/kg, po measured for 24 hrs by LC-MS/MS analysis. Conditions: lung and plasma. Type of data set: ADME, organism-based.
In data set [19] the target is T2, Cytochrome P450 3A4 (Homo sapiens, UniProt P08684). Briefly: Inhibition of CYP3A4 in human liver microsomes using midazolam as substrate preincubated for 30 min followed by NADPH addition measured after 12 mins by LC-MS/MS analysis. Type of data set: ADME, Microsome.
T2 sequence (P08684 whole entry): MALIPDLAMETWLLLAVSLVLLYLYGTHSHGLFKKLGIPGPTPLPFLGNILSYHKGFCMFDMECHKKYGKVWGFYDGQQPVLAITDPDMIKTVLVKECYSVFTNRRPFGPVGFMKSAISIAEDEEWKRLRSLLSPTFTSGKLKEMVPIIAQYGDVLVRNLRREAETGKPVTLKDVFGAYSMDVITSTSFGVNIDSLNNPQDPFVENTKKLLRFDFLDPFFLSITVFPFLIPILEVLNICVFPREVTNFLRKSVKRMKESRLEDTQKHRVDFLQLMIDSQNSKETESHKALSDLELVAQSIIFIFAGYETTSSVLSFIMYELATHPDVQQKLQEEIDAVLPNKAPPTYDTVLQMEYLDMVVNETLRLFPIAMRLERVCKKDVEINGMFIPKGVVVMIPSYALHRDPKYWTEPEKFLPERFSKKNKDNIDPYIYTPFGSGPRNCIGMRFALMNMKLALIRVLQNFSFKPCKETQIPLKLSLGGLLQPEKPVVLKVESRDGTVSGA
Data set [20] can be described thus: Ratio of drug concentration in heart to plasma of CD-1 mouse at 10 mg/kg, po measured for 24 hrs by LC-MS/MS analysis. The class given is ADME, organism-based. Conditions: heart and plasma.
Data set [21] is described as follows: Drug concentration in CD-1 mouse kidney at 10 mg/kg, po measured for 24 hrs by LC-MS/MS analysis. The settings on record: read-out: Ct. The class given is ADME, organism-based.
Data set [22] has as its system Hepatitis B virus. Briefly: Antiviral activity against HBV genotype D in immuno-competent C57BL/6 mouse model of chronic HBV assessed as log10 reduction in serum HBsAg production at 30 mg/kg, po qd for 14 days measured 24 hrs post-last dose by EIA relative to control. The settings on record: time 15 day. Type of data set: functional.
A short description of data set [23]: Ratio of drug concentration in heart to plasma of Sprague-Dawley rat at 5 mg/kg, po measured for 24 hrs by LC-MS/MS analysis. The class given is ADME, organism-based.
The nature of data set [24]: Selectivity ratio of drug concentration in liver in CD-1 mouse at 0.2 mg/kg, po measured for 24 hrs to EC90 for antiviral activity against HBV infected in human HepG2.2.15 cells assessed as reduction in HBsAg level. Type of data set: ADME, organism-based. The settings on record: in vivo.
The target in data set [25] is T2, Cytochrome P450 3A4. In words: Inhibition of CYP3A4 in human liver microsomes using testosterone as substrate preincubated for 30 min followed by NADPH addition measured after 12 mins by LC-MS/MS analysis. Type of data set: ADME, Microsome.
Data set [26] in a line: Drug concentration in CD-1 mouse lung at 10 mg/kg, po measured for 24 hrs by LC-MS/MS analysis. Type of data set: ADME, organism-based. Conditions: read-out: Ct.
A short description of data set [27]: Ratio of drug concentration in kidney to plasma of CD-1 mouse at 10 mg/kg, po measured for 24 hrs by LC-MS/MS analysis. The class given is ADME, organism-based. Conditions: kidney and plasma.
Data set [28] is described as follows: Drug concentration in Sprague-Dawley rat liver at 5 mg/kg, po measured for 24 hrs by LC-MS/MS analysis. The class given is ADME, organism-based. Conditions: read-out: Ct.
Data set [29] can be described thus: Selectivity ratio of drug concentration in liver in CD-1 mouse at 0.2 mg/kg, po measured for 12 hrs to EC90 for antiviral activity against HBV infected in human HepG2.2.15 cells assessed as reduction in HBsAg level. Type of data set: ADME, organism-based. Conditions: in vivo.
[30] abbreviates: in vivo, po, 5 mg/kg, 24 h, BLD = below limit of detection.

pIC50: −log10 of the molar value.

On to `COCCCOc1cc2c(nc1OC)-c1cc(=O)c(C(=O)O)cn1[C@H](C(C)C)C2`, for which, in data set [1], the concentration at 12 h was determined as 140 ng/g. The microsomal CLint at 0.3 µM in data set [2] worked out at 4 µL/min/mg; in [4] it was 3 µL/min/mg. The “log(activity)” value in data set [3] amounted to 0.7.

Take `COc1cc(OC(F)F)c2nc3c(n2c1)C[C@@H](C(C)(C)C)c1cc(C(=O)O)c(=O)[nH]c1-3`: the concentration at 24 h was determined as 5.5 ng/g in [5]; 15 ng/g in data set [8]; 0.7 ng/g in [15]; 71 ng/g in [21]; 25 ng/g in data set [26]; 13900 ng/g in data set [28]. For the same compound, the Ratio result in data set [6] (setting [30]) is “Bld”; in [23] (setting [30]) it was “Bld”; in data set [24], 40; in data set [29] it was 166. Also, the Kp at 24 h in data set [7] came out at 116; in data set [12], 7.9; in data set [18] it was 0.4; in data set [20], 0.3; in data set [27], 1.3. For the same compound, in data set [1], the concentration at 12 h worked out at 2910 ng/g. Moreover, the negative logarithm of the IC50 (pIC50) in data set [9] is 4.68; in data set [14], 4.66; in [16], less than 4.60; in data set [19], less than 4.60; in data set [25], less than 4.60. In data set [10], this compound showed an AUC(0-t) at 24 h of 148 ng·h/mL. For the same compound, the Ct entry in [11] (setting [30]) and in data set [13] (setting [30]) was “Bld” each time. Besides, the results for the microsomal CLint at 0.3 µM in data set [2] and in data set [4] were 6 µL/min/mg and 3 µL/min/mg, respectively. Moreover, in [17], the Kp at 12 h was determined as 284. The “log(activity)” value in data set [3] is recorded as 0.67; in data set [22], 0.94.

In the case of `CC(C)(C)[C@@H]1Cc2c(nc3c(C(F)(F)F)cc(C4CC4)cn23)-c2[nH]c(=O)c(C(=O)O)cc21`, the concentration at 24 h stood at 6 ng/g in data set [5]; 15 ng/g in data set [8]; 5 ng/g in [11] (Sprague-Dawley, lung, read-out: Ct); 1.3 ng/g in data set [13] (Sprague-Dawley, heart, read-out: Ct); 6.7 ng/g in data set [15]; 23 ng/g in data set [21]. Besides, the concentration at 24 h worked out at 35 ng/g in [26] and 6140 ng/g in data set [28]. Also, the Kp at 24 h was 0.7 in data set [6] (Sprague-Dawley, lung and plasma); 97 in data set [7]; 0.9 in [12]; 0.4 in data set [18]; 0.2 in data set [20]; 0.2 in data set [23] (Sprague-Dawley, heart and plasma). Besides, the concentration ratio (Kp) at 24 h in data set [27] amounted to 0.3. In addition, in data set [1], the concentration at 12 h was determined as 275 ng/g. For the same compound, the pIC50 in data set [9] was 4.66; in data set [14] it was 4.68; in data set [16], less than 4.60; in data set [19], less than 4.60; in data set [25], less than 4.60. The same compound returned an AUC(0-t) at 24 h in [10] of 273 ng·h/mL. Besides, the concentration ratio (Kp) at 12 h in data set [17] was 120. Besides, the “log(activity)” value in [22] is given as 1.35. Also, the Ratio in data set [24] stood at 51; in [29], 572. Also, the microsomal CLint at 0.3 µM in data set [4] was 5 µL/min/mg.
